Measured values reported in patent publication US20140357553A1, “NUTRITIONAL COMPOSITION FOR WOUND HEALING” (Nestec S.A., priority 2003, published 2014).

Test system: Normal human fibroblasts
Protocol: Normal human fibroblasts were trypsinised and seeded in 12 well plates at a density of […]. When confluent, the cells were transferred to a culture medium with an amino acid distribution and concentrations designed to mimic those in human serum as closely as possible. The cell cultures were divided into two categories, a control culture in which the culture medium contained 0.201 mM proline and an experimental sample in which the culture medium contained 0.592 mM proline. After 24 hours fibroblast-conditioned medium containing 100 microgram/ml beta-aminoproprionitrile to prevent cross-linking of collagen molecules in the cultures was collected. The conditioned medium was dotblotted to a nitrocellulose membrane and probed for collagen type I content with a polyclonal immune-absorbed antibody. The value shown for the proline-supplemented samples is relative to the controls set at 100%.

O=C(O)[C@@H]1CCCN1 [Proline, proline] was tested, and the “% of control value (collagen type I content)” value (0.502 mM proline in culture medium vs control medium with 0.201 mM proline set at 100%, conditioned medium collected after 24 hours) was 150% ± 21.9% and the “increase in collagen synthesis” value (human fibroblasts, proline-supplemented medium vs control) was 50%.
